Values of other authors in patent US6617154B1, “Electroporation chamber including an electrode having a continuous, crystalline metal nitride coating” (MaxCyte, Inc., priority 1996, dated 2003).

Legend:
[1] = experimental animals; DPG or its precursors
[2] = target: T1, hemoglobin (Homo sapiens, UniProt P68871); conditions: relative to DPG
[3] = test system: mammalian erythrocyte membrane
[4] = target: T1, hemoglobin; conditions: pH 7.4, 37 degrees C
[5] = under ordinary circumstances, not bound to hemoglobin

T1 sequence (P68871 2-147 limits assumed): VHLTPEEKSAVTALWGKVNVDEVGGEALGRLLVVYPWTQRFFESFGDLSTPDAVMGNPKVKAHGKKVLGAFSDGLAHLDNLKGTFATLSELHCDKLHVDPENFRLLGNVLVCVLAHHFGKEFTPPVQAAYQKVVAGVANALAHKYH
T1 sequence (P69905 2-142 partner limits assumed): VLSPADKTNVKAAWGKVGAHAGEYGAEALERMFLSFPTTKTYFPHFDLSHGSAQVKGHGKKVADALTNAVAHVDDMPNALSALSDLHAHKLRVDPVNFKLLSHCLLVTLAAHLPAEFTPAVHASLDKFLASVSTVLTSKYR

Row | Structure (SMILES) | duration of transient elevation of oxygen deposition [1] | affinity to hemoglobin, higher than DPG [2] | passage through the mammalian erythrocyte membrane [3] | P50 of hemoglobin [4] | toxicity [5]
1 | O=C(O)C(COP(=O)(O)O)OP(=O)(O)O (centres unmarked) [DPG, 2,3-diphosphoglycerate] | 6 to 12 h | – | – | – | –
2 | O=P(O)(O)O[C@H]1[C@H](OP(=O)(O)O)[C@@H](OP(=O)(O)O)[C@H](OP(=O)(O)O)[C@@H](OP(=O)(O)O)[C@H]1OP(=O)(O)O [IHP, inositol hexaphosphate] | – | 1000 fold | unable to pass | ≤ 96.4 mm Hg | toxic
